Key:
Type in all cases: cell-based, human
[1] = system: MIP-1α; test: LPS-stimulated MIP-1α production in THP-1 monocytes (multiplex Luminex); set-up: key to Inhibition of LPS-stimulated MIP-1α production: “X” signifies significant inhibition at a particular concentration
Experimental: (§1) Human THP-1 monocytes (ATCC TIB 202) were purchased from American Type Culture Collection (Manassas, Va.) and maintained in RPMI 1640 medium (Invitrogen, Carlsbad, Calif.) supplemented with 10% fetal bovine serum (“FBS”, Invitrogen, Carlsbad, Calif.), 100 U/mL of penicillin (Invitrogen, Carlsbad, Calif.), and 100 μg/mL of streptomycin (Invitrogen, Carlsbad, Calif.) at 37° C. in a humidified incubator with 5% CO2. THP-1 cells were pre-cultured in RPMI 1640 medium containing 10% dialyzed serum for 24 h. […] Each treatment was performed in triplicate.
(§2) Samples were analyzed using multiplex bead technology, which utilizes microspheres as the solid support for immunoassays and allows the analysis of all cytokines from each sample (D. A. Vignali, J. Immunol. Methods, Vol. 243, 243-255 (2000)). Sixteen cytokines were measured according to the manufacturer's instructions. Briefly, 50 μL of medium samples were incubated with antibody-coated capture beads overnight at 4° C. Washed beads were further incubated with biotin-labelled anti-human cytokine antibodies for 2 h at room temperature followed by incubation with streptavidin-phycoerythrin for 30 min. Samples were analyzed using Luminex 200™ (Luminex, Austin, Tex.) and Beadview software v1.0 (Upstate Cell Signaling Solutions, Temecula, Calif.). Standard curves of known concentrations of recombinant human cytokines were used to convert fluorescence units (median fluorescence intensity) to cytokine concentration in pg/mL. Only the linear portions of the standard curves were used to quantify cytokine concentrations, and in instances where the fluorescence reading exceeded the linear range of the standard curve, an appropriate dilution was performed to ensure that the concentration was in the linear portion of the curve.
(§3) All cytokine concentrations (pg/mL) were expressed as mean ±standard deviation. Statistical analysis comparing effects of treatment across groups was performed using a one-way ANOVA with a Dunnett's post-hoc comparison test using either vehicle control or LPS treatment as references. For all assays, p≦0.05 was predetermined as the criterion of statistical significance.

[2] = system: GM-CSF; test: LPS-stimulated GM-CSF production in THP-1 monocytes (multiplex Luminex); set-up: key to Inhibition of LPS-stimulated GM-CSF production: “X” signifies significant inhibition at a particular concentration
Experimental: as §1, §2
(§4) All cytokine concentrations (pg/mL) were expressed as mean ±standard deviation. Statistical analysis comparing effects of treatment across groups was performed using a one-way ANOVA with a Dunnett's post-hoc comparison test using either vehicle control or LPS treatment as references. […]

[3] = system: IL-1α; test: LPS-stimulated IL-1α production in THP-1 monocytes (multiplex Luminex); set-up: key to Inhibition of LPS-stimulated IL-1α production: “X” signifies significant inhibition at a particular concentration
Experimental: as §1, §2, §3

[4] = system: IL-8; test: LPS-stimulated IL-8 production in THP-1 monocytes (multiplex Luminex); set-up: key to Inhibition of LPS-stimulated IL-8 production: “X” signifies significant inhibition at a particular concentration
Experimental: as §1, §2, §3

[5] = system: IL-1ra; test: LPS-stimulated IL-1ra production in THP-1 monocytes (multiplex Luminex); set-up: key to Inhibition of LPS-stimulated IL-1ra production: “X” signifies significant inhibition at a particular concentration; conditions: for Inhibition of LPS-stimulated IL-1ra production: 18 hours
Experimental: as §1, §2, §3

[6] = system: VEGF; test: LPS-stimulated VEGF production in THP-1 monocytes (multiplex Luminex); set-up: key to Inhibition of LPS-stimulated VEGF production: “X” signifies significant inhibition at a particular concentration; conditions: for Inhibition of LPS-stimulated VEGF production: 18 hours, THP-1 monocytes
Experimental: as §1, §2, §3

[7] = system: Fractalkine; test: LPS-stimulated fractalkine production in THP-1 monocytes (multiplex Luminex); conditions: 0.1-30 μg/mL, 18 hours
Experimental: as §1
(§5) Samples were analyzed using multiplex bead technology, which utilizes microspheres as the solid support for immunoassays and allows the analysis of all cytokines from each sample (D. A. Vignali, J. Immunol. Methods, Vol. 243, 243-255 (2000)). Sixteen cytokines were measured according to the manufacturer's instructions. Briefly, 50 μL of medium samples were incubated with antibody-coated capture beads overnight at 4° C. […] Samples were analyzed using Luminex 200™ (Luminex, Austin, Tex.) and Beadview software v1.0 (Upstate Cell Signaling Solutions, Temecula, Calif.). Standard curves of known concentrations of recombinant human cytokines were used to convert fluorescence units (median fluorescence intensity) to cytokine concentration in pg/mL. […]
(§6) All cytokine concentrations (pg/mL) were expressed as mean ±standard deviation. […]

[8] = system: IP-10; test: LPS-stimulated IP-10 production in THP-1 monocytes (multiplex Luminex); set-up: key to Inhibition of LPS-stimulated IP-10 production: “X” signifies significant inhibition at a particular concentration
Experimental: as §1, §2, §3

[9] = system: IL-12p40; test: LPS-stimulated IL-12p40 production in THP-1 monocytes (multiplex Luminex); set-up: key to Inhibition of LPS-stimulated IL-12p40 production: “X” signifies significant inhibition at a particular concentration; conditions: 18 hours
Experimental: as §1, §2, §3

[10] = system: IL-6; test: LPS-stimulated IL-6 production in THP-1 monocytes (multiplex Luminex); set-up: key to Inhibition of LPS-stimulated IL-6 production: “X” signifies significant inhibition at a particular concentration
Experimental: as §1, §2, §3

[11] = system: RANTES; test: LPS-stimulated RANTES production in THP-1 monocytes (multiplex Luminex); conditions: 0.1-30 μg/mL, 18 hours
Experimental: as §1, §5, §6

[12] = system: G-CSF; test: LPS-stimulated G-CSF production in THP-1 monocytes (multiplex Luminex); set-up: key to Inhibition of LPS-stimulated G-CSF production: “X” signifies significant inhibition at a particular concentration
Experimental: as §1, §2, §3

[13] = system: IL-1β; test: LPS-stimulated IL-1β production in THP-1 monocytes (multiplex Luminex); set-up: key to Inhibition of LPS-stimulated IL-1β production: “X” signifies significant inhibition at a particular concentration
Experimental: as §1, §2, §3

[14] = system: MCP-1; test: LPS-stimulated MCP-1 production in THP-1 monocytes (multiplex Luminex); set-up: key to Inhibition of LPS-stimulated MCP-1 production: “X” signifies significant inhibition at a particular concentration
Experimental: as §1, §2, §4

[15] = 30 μg/mL compound + 10 μg/mL LPS, 18 hours, THP-1 monocytes
[16] = LPS-induced, THP-1 monocytes, 18 hours
[17] = 1 μg/mL compound + 10 μg/mL LPS, 18 hours, THP-1 monocytes
[18] = 10 μg/mL compound + 10 μg/mL LPS, 18 hours, THP-1 monocytes
[19] = FIG. 2, LPS-stimulated THP-1 monocytes
[20] = 30 μg/mL compound + 10 μg/mL LPS

N[C@@H]1CCCCN(c2c(F)cc3c(=O)c(C(=O)O)cn(C4CC4)c3c2Cl)C1 [Compound Having Formula IV]
Inhibition of LPS-stimulated MIP-1α production [1, 15]: X | Comparison of moxifloxacin and compound having Formula IV, effect on MIP-1α after LPS stimulation ([1]; FIG. 1, THP-1 monocytes): comparable effects | Concentration at which a significant inhibitory effect was observed for MIP-1α [1, 16]: 30 µg/mL | Inhibition of LPS-stimulated GM-CSF production [2, 15]: X | Comparison of moxifloxacin and compound having Formula IV, effect on GM-CSF after LPS stimulation ([2]; FIG. 1, THP-1 monocytes): comparable effects | Concentration at which a significant inhibitory effect was observed for GM-CSF [2, 16]: 30 µg/mL | Inhibition of LPS-stimulated IL-1α production ([3]; 0.1 μg/mL compound + 10 μg/mL LPS, 18 hours, THP-1 monocytes): X | Inhibition of LPS-stimulated IL-1α production [3, 17]: X | Inhibition of LPS-stimulated IL-1α production [3, 18]: X | Inhibition of LPS-stimulated IL-1α production [3, 15]: X | Relative potency of compound having Formula IV and moxifloxacin on IL-1α [3, 19]: better potency than moxifloxacin | Lowest concentration with significant inhibitory effect on IL-1α ([3]; LPS-induced, THP-1 monocytes): 100 ng/mL | Concentration at which a significant inhibitory effect was observed for IL-1α [3, 16]: 0.1 µg/mL | Inhibition of LPS-stimulated IL-8 production [4, 15]: X | Comparison of moxifloxacin and compound having Formula IV, effect on IL-8 after LPS stimulation ([4]; FIG. 1, THP-1 monocytes): comparable effects | Concentration at which a significant inhibitory effect was observed for IL-8 [4, 16]: 30 µg/mL | Inhibition of LPS-stimulated IL-1ra production ([5]; 1 μg/mL compound + 10 μg/mL LPS, THP-1 monocytes): X | Inhibition of LPS-stimulated IL-1ra production ([5]; 10 μg/mL compound + 10 μg/mL LPS, THP-1 monocytes): X | Inhibition of LPS-stimulated IL-1ra production ([5]; 30 μg/mL compound + 10 μg/mL LPS, THP-1 monocytes): X | Relative potency of compound having Formula IV and moxifloxacin on IL-1ra [5, 19]: better potency than moxifloxacin | Concentration with significant inhibitory effect on IL-1ra ([5]; LPS-induced, THP-1 monocytes): 1000 ng/mL | Inhibition of LPS-stimulated VEGF production ([6]; 10 μg/mL compound + 10 μg/mL LPS): X | Inhibition of LPS-stimulated VEGF production [6, 20]: X | Relative potency of compound having Formula IV and moxifloxacin on VEGF [6, 19]: better potency than moxifloxacin | Effect on LPS-stimulated production of fractalkine [7]: Neither moxifloxacin nor compound having Formula IV altered | Inhibition of LPS-stimulated IP-10 production [8, 15]: X | Comparison of moxifloxacin and compound having Formula IV, effect on IP-10 after LPS stimulation ([8]; FIG. 1, THP-1 monocytes): comparable effects | Concentration at which a significant inhibitory effect was observed for IP-10 [8, 16]: 30 µg/mL | Inhibition of LPS-stimulated IL-12p40 production [9, 20]: X | Concentration at which a significant inhibitory effect was observed for IL-12p40 ([9]; LPS-induced): 30 µg/mL | Inhibition of LPS-stimulated IL-6 production [10, 17]: X | Inhibition of LPS-stimulated IL-6 production [10, 18]: X | Inhibition of LPS-stimulated IL-6 production [10, 15]: X | Relative potency of compound having Formula IV and moxifloxacin on IL-6 [10, 19]: better potency than moxifloxacin | Concentration with significant inhibitory effect on IL-6 ([10]; LPS-induced, THP-1 monocytes): 1000 ng/mL | Concentration at which a significant inhibitory effect was observed for IL-6 [10, 16]: 1 µg/mL | Effect on LPS-stimulated production of RANTES [11]: Neither moxifloxacin nor compound having Formula IV altered | Inhibition of LPS-stimulated G-CSF production [12, 17]: X | Inhibition of LPS-stimulated G-CSF production [12, 18]: X | Inhibition of LPS-stimulated G-CSF production [12, 15]: X | Relative potency of compound having Formula IV and moxifloxacin on G-CSF [12, 19]: better potency than moxifloxacin | Concentration with significant inhibitory effect on G-CSF ([12]; LPS-induced, THP-1 monocytes): 1000 ng/mL | Concentration at which a significant inhibitory effect was observed for G-CSF [12, 16]: 1 µg/mL | Inhibition of LPS-stimulated IL-1β production [13, 15]: X | Comparison of moxifloxacin and compound having Formula IV, effect on IL-1β after LPS stimulation ([13]; FIG. 1, THP-1 monocytes): comparable effects | Concentration at which a significant inhibitory effect was observed for IL-1β [13, 16]: 30 µg/mL | Inhibition of LPS-stimulated MCP-1 production [14, 15]: X | Comparison of moxifloxacin and compound having Formula IV, effect on MCP-1 after LPS stimulation ([14]; FIG. 1, THP-1 monocytes): comparable effects | Concentration at which a significant inhibitory effect was observed for MCP-1 [14, 16]: 30 µg/mL

Source: US20080306038A1, “Compositions and Methods for Modulating Inflammation Using Fluoroquinolones” (priority 2007, published 2008)
